Measured values from PMC7355497 (Pharmaceutics, 2020).
Structures can show the parent of a compound that is named as a salt.

What was measured:
P-gp = P-gp (Homo sapiens, UniProt P08183); conditions: 15 min, 10 μM
Experimental: The P-gp inhibition effect of anthraquinones from R. acetosa was evaluated via MDR assay kit using Caco-2 cells. […] The MDR dye-loading solution was added at a volume of 100 μL and incubated. Fluorescence intensity was detected with a microplate reader Synerge H1 (Biotek, Winooski, VT, USA) at a wavelength of 490 nm for the excitation and 525 nm for the emission.

[1] = cited from earlier work

Sequence of P-gp (P08183 whole entry): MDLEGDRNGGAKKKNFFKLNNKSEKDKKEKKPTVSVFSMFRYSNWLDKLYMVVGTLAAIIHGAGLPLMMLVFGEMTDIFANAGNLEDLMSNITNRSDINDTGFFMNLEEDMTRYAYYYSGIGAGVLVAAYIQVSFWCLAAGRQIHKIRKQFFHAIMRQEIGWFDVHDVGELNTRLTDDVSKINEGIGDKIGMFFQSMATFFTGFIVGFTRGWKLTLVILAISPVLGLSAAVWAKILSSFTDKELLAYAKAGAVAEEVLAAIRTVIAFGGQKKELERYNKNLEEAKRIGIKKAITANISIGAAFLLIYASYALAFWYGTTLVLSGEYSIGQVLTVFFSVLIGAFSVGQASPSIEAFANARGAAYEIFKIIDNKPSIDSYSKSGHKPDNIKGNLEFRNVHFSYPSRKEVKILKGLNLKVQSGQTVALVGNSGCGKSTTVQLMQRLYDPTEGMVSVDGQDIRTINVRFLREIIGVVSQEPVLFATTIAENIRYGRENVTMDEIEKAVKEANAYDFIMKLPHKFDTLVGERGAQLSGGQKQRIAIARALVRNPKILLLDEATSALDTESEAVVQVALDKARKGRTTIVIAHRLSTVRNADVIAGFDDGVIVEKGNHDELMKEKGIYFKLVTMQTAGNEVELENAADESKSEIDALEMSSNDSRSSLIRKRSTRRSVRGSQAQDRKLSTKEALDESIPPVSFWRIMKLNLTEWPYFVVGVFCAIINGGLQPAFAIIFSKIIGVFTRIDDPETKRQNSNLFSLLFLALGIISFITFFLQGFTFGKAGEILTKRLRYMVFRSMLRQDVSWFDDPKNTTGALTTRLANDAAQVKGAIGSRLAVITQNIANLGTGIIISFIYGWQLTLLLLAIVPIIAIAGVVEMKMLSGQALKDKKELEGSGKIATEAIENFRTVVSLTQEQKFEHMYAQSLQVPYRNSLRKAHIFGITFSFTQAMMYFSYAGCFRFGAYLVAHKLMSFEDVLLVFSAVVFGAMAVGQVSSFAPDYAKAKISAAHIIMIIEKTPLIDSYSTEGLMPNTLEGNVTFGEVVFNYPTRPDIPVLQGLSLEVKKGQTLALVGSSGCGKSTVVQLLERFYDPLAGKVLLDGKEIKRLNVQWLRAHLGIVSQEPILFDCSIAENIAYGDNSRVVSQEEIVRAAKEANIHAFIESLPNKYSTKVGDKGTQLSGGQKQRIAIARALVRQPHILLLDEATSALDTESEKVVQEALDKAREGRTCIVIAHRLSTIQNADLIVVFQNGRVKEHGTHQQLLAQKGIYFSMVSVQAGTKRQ

Row | Compound | Fluorescence intensity as percentage of control group (P-gp inhibition) (P-gp) | Fraction of dose excreted into feces as the unchanged form [1] | Fraction of dose excreted into urine as the unchanged form [1]
1 | Cc1cc(O)c2c(c1)C(=O)c1cc(O)cc(O)c1C2=O [emodin] | 147.2% ± 12.4 | – | –
2 | CC(C)(C(=O)O)c1ccc(C(O)CCCN2CCC(C(O)(c3ccccc3)c3ccccc3)CC2)cc1 (stereo not drawn) [fexofenadine, Fexofenadine hydrochloride] | – | 80% | 11%
